The values that follow come from patent publication US20130316946A1, “EXTENDED RECOMBINANT POLYPEPTIDE-MODIFIED C-PEPTIDE” (Cebix, Inc., priority 2012, published 2013).

The conditions of series [1]: in vivo; cited from earlier work.
Series [2] is described as follows: Pharmacokinetics of unmodified C-peptide in beagle dogs after a single S.C. dose. The series is classed as in vivo. The protocol: A pharmacokinetic (PK) study was conducted to determine the C-peptide PK profile with unmodified C-peptide in beagle dogs.
Methods: Two male and one female dog received S.C. the unmodified synthetic human C-peptide (0.5 mg/kg; 0.025 mL/kg) formulated in phosphate buffered saline (20 mg/mL). Dogs were bled by venipuncture and blood samples were collected at predetermined time points over 14 days. Plasma samples were obtained after centrifugation of the blood (3,000 rpm for 10 minutes) and stored at −80° C. until analysis. A CRO with Good Laboratory Practice (GLP) capabilities (MicroConstants, Inc.; San Diego, Calif.) performed the bioanalytical work. Plasma levels of C-peptide were measured by an enzyme-linked immunosorbant assay (ELISA) technique based on a commercial kit for human C-peptide determination (Mercodia; catalog number 10-1136-01) using the manufacturer's instructions. Results were expressed as C-peptide concentrations. For the PK analysis, the below quantitation level (BQL) was treated as zero and nominal time points were used for all calculations. PK parameters were determined by standard model independent methods based on the individual plasma concentration-time data for each animal using model 200 in WinNonlin Professional 5.2.1 (Pharsight Corp., Mountain View, Calif.).

A short description of series [3]: Stability of C-peptide-XTEN in monkey plasma. The series is classed as in vitro ADME. To be noted: 37° C., over 7 days, SDS PAGE / Western. The protocol: A fusion protein containing XTEN_AE864 fused to the N-terminus of C-peptide is incubated in monkey plasma and rat kidney lysate for up to 7 days at 37° C. Samples are withdrawn at time 0, Day 1 and Day 7 and analyzed by SDS PAGE followed by detection using Western analysis and detection with antibodies against C-peptide. […] The in vivo stability of the fusion protein is tested in plasma samples wherein the C-peptide_AE864 is immunoprecipitated and analyzed by SDS PAGE as described above.

A short description of series [4]: Stability of C-peptide-XTEN in rat kidney lysate. It is filed as in vitro ADME. To be noted: 37° C., over 3 days, SDS PAGE / Western. The protocol:
A fusion protein […] followed by detection using Western analysis and detection with antibodies against C-peptide. […] The in vivo stability of the fusion protein is tested in plasma samples wherein the C-peptide_AE864 is immunoprecipitated and analyzed by SDS PAGE as described above.

As to Aspart, the “peak time of effect” value in series [1] is reported as “around 30 minutes”.

As for Lispro, the “peak time of effect” value in series [1] is recorded as “around 30 minutes”. Take Glulisine: the “peak time of effect” value in series [1] was “around 30 minutes”. `CC(C)C[C@H](NC(=O)[C@H](C)NC(=O)[C@H](CC(C)C)NC(=O)[C@@H]1CCCN1C(=O)[C@H](CCC(N)=O)NC(=O)[C@H](CC(C)C)NC(=O)[C@H](CO)NC(=O)CNC(=O)[C@H](C)NC(=O)CNC(=O)[C@@H]1CCCN1C(=O)CNC(=O)CNC(=O)CNC(=O)[C@H](CC(C)C)NC(=O)[C@H](CCC(=O)O)NC(=O)[C@@H](NC(=O)[C@H](CCC(N)=O)NC(=O)CNC(=O)[C@@H](NC(=O)[C@H](CCC(N)=O)NC(=O)[C@H](CC(C)C)NC(=O)[C@H](CC(=O)O)NC(=O)[C@H](CCC(=O)O)NC(=O)[C@H](C)NC(=O)[C@@H](N)CCC(=O)O)C(C)C)C(C)C)C(=O)N[C@@H](CCC(=O)O)C(=O)NCC(=O)N[C@@H](CO)C(=O)N[C@@H](CC(C)C)C(=O)N[C@@H](CCC(N)=O)C(=O)O` [CP-AQ, human C-peptide]: the “circulating levels of C-peptide below quantitation level (BQL)” value in series [2] (dog, in vivo, sc) is reported as “BQL within half a day”. Moreover, the “tolerability (clinical abnormalities)” value in series [2] (dogs, single S.C. dose 0.5 mg/kg) is recorded as “well tolerated”. On to Glargine insulin, for which, in series [1], the duration of activity is 24 h and the “peak time of effect” value is listed as “no peak effect”. As for Regular insulin, in series [1], the onset of action was 30 to 60 min.

B1: AE864: XTEN polypeptide of 864 amino acid residues, SEQ ID NO:70 (protein)
chain: GSPAGSPTSTEEGTSESATPESGPGTSTEPSEGSAPGSPAGSPTSTEEGTSTEPSEGSAPGTSTEPSEGSAPGTSESATPESGPGSEPATSGSETPGSEPATSGSETPGSPAGSPTSTEEGTSESATPESGPGTSTEPSEGSAPGTSTEPSEGSAPGSPAGSPTSTEEGTSTEPSEGSAPGTSTEPSEGSAPGTSESATPESGPGTSTEPSEGSAPGTSESATPESGPGSEPATSGSETPGTSTEPSEGSAPGTSTEPSEGSAPGTSESATPESGPGTSESATPESGPGSPAGSPTSTEEGTSESATPESGPGSEPATSGSETPGTSESATPESGPGTSTEPSEGSAPGTSTEPSEGSAPGTSTEPSEGSAPGTSTEPSEGSAPGTSTEPSEGSAPGTSTEPSEGSAPGSPAGSPTSTEEGTSTEPSEGSAPGTSESATPESGPGSEPATSGSETPGTSESATPESGPGSEPATSGSETPGTSESATPESGPGTSTEPSEGSAPGTSESATPESGPGSPAGSPTSTEEGSPAGSPTSTEEGSPAGSPTSTEEGTSESATPESGPGTSTEPSEGSAPGTSESATPESGPGSEPATSGSETPGTSESATPESGPGSEPATSGSETPGTSESATPESGPGTSTEPSEGSAPGSPAGSPTSTEEGTSESATPESGPGSEPATSGSETPGTSESATPESGPGSPAGSPTSTEEGSPAGSPTSTEEGTSTEPSEGSAPGTSESATPESGPGTSESATPESGPGTSESATPESGPGSEPATSGSETPGSEPATSGSETPGSPAGSPTSTEEGTSTEPSEGSAPGTSTEPSEGSAPGSEPATSGSETPGTSESATPESGPGTSTEPSEGSAP
modifications: AE864 XTEN polypeptide
As to B1, in series [3], the “degradation in monkey plasma” value is recorded as “negligible signs of degradation”. Besides, the “degradation in rat kidney lysate” value in series [4] is “rapidly degraded”.
